Measured values: PMC6934184, “Selective DNA-PKcs inhibition extends the therapeutic index of localized radiotherapy and chemotherapy” (The Journal of Clinical Investigation, 2019)

Biological target: T1, TLK1 (Homo sapiens, UniProt Q9UKI8)
T1 construct: purchased Thermo Fisher Scientific (Life Technologies) SelectScreen
Assay: SelectScreen LanthaScreen
Type: binding
Details: read-out: % displacement
How it was run: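 NU5455 was profiled across the SelectScreen Broad panel of kinase activity and binding assays. Z'LYTE reactions such as CSF1R ran at apparent Km ATP, while the Adapta CAMK1 assay used ATP listed as 10. Values are given as percent.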

T1 sequence (Q9UKI8 whole entry): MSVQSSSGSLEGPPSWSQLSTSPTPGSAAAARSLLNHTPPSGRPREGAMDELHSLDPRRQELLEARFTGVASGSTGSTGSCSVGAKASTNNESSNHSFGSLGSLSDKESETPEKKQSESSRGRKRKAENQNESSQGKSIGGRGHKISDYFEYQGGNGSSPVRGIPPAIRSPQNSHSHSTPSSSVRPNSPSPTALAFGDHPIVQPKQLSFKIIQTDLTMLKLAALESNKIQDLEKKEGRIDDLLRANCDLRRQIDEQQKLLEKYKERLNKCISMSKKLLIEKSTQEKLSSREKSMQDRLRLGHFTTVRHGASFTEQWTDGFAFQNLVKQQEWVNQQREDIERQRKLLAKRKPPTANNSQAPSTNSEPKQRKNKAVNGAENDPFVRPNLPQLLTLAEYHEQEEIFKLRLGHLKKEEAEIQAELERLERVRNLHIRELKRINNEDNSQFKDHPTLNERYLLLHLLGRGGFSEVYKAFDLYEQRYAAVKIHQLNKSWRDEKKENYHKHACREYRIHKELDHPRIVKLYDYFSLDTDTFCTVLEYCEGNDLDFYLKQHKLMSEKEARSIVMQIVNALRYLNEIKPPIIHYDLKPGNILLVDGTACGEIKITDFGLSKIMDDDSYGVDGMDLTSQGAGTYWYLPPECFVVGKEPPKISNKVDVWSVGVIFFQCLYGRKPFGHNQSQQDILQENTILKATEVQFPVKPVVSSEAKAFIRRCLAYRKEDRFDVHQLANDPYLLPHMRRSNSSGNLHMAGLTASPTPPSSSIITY

## CN(C(=O)CN1CCOCC1)c1ccc2sc3c(-c4cccc5c(=O)cc(N6CC7CCC(C6)O7)oc45)cccc3c2c1 [NU5455]
  inhibition at 1 µM: -0.8%
